Reference: US12466784B2, “Analogs of pterostilbene amino acid bearing carbonates for treating a non-alcoholic fatty liver disease and nonalcoholic steatohepatitis” (APICAL MOLECULAR BIOTECH CO., LTD., priority 2020, dated 2025)
Where “and” joins values, the source holds several entries; their conditions need not be identical. Identical values can stand only once.

How the values were obtained:
MCD diet NASH mice = test: Serum AST and ALT of compounds treated-NASH mice (MCD diet); format: in vivo, Male C57BL/6 mice
Experimental: (§1) Animals and experimental protocol: Male C57BL/6 mice, 4 weeks of age, were purchased from Laboratory Animal Center (Taiwan, China) were maintained under the procedures and guidelines provided by the Institutional Animal Care and Use Committee of the Health Research Institutes (Taiwan, China). They were maintained with free access to pellet food and water in stainless-steel cages at a temperature of 21±2° C. with a 12 h light/dark cycle.
(§2) Mice were randomly divided into five groups and treated as follows: (1) MCD diet+PG/TPSG (2) MCD diet+100 mg/kg all compounds. After 28 days, animals were sacrificed for the collection of blood for determination of plasma ALT and AST concentrations, and liver samples for H&E stain.
(§3) After 28 days, animals were sacrificed for the collection of blood for determination of plasma ALT and AST concentrations, and liver samples for H&E stain.

[1] = In vitro stability in pH 1.2 solution (USP Gastric fluid without enzymes); details: 37° C.
Experimental: Sample collection: At 0, 0.17, 0.5, 1, 2, 4 and 6 h, 100 mL of aliquots were taken from the incubation mixture and placed into centrifuge tubes containing 100 μL of ice-cold acetonitrile and 1 μm internal standard where the reaction was terminated.

[2] = tested on: hepatic steatosis induced by MCD diet; test: Histological examination (H&E stain) of liver of MCD diet mice; format: in vivo, Male C57BL/6 mice; details: for Avg: average of Scores of the group; for Ballooning / Inflammation / Steastosis / Fibrosis: score per animal; for Sum: sum of Scores of the 5 animals; for Scores: total score per animal
Experimental: as §1, §2, §3

[3] = MCD diet mice, 100 mg/kg oral (Table 4 study)
[4] = MCD diet mice, 100 mg/kg oral, PG/TPSG (1:1)
[5] = MCD diet mice, 75 mg/kg oral, hydrochloride, 75 mg/kg
[6] = MCD diet mice, 100 mg/kg oral (Table 3 study)
[7] = MCD diet mice, 100 mg/kg oral (Table 3 study), hydrochloride, 100 mg/kg
[8] = MCD diet mice, 150 mg/kg oral, hydrochloride, 150 mg/kg

Q: For “(E)-2-(2-amino-3-methylbutanamido)ethyl (4-(3,5-dimethoxystyryl)phenyl) carbonate hydrochloride [Compound 5c]”, which “Serum ALT (U/L)” value (MCD diet NASH mice; MCD diet mice, 75 mg/kg oral) is on record?
A: 164.40 U/L

Q: And the “Serum AST (U/L)” value (MCD diet NASH mice; MCD diet mice, 75 mg/kg oral)?
A: 275.00 U/L

Q: And the “effect on serum concentrations of AST and ALT, in words” value (MCD diet NASH mice; MCD diet mice, 100 mg/kg oral (Table 2))?
A: significantly inhibited the serum concentrations of AST and ALT

Q: And the “Serum ALT (U/L)” value (MCD diet NASH mice; [3])?
A: 92.60 U/L

Q: What about the “Serum AST (U/L)” value (MCD diet NASH mice; [3]) of the same substance?
A: 245.80 U/L

Q: What about the “Serum ALT (U/L)” value (MCD diet NASH mice; [4]) of the same substance?
A: 205.13 U/L

Q: What about the “Serum AST (U/L)” value (MCD diet NASH mice; [4]) of the same substance?
A: 274.00 U/L

Q: What about the “Serum ALT (U/L)” value (MCD diet NASH mice; MCD diet mice, 150 mg/kg oral) of the same substance?
A: 82.80 U/L

Q: What about the “Serum AST (U/L)” value (MCD diet NASH mice; MCD diet mice, 150 mg/kg oral) of the same substance?
A: 192.00 U/L

Q: And the “effect on serum concentrations of AST and ALT, in words” value (MCD diet NASH mice; MCD diet mice, 75, 100 and 150 mg/kg oral (Table 4))?
A: significantly inhibited the serum concentrations of AST and ALT with dose-dependent manners

Q: What about the “compound remaining in pH = 1.2 solution (%)” value (shortened to “compound remaining … (%)”) ([1]; Time 0 h) of the same substance?
A: 100.0%

Q: What about the “compound remaining … (%)” value ([1]; Time 0.167 h) of the same substance?
A: 88.5%

Q: And the “compound remaining … (%)” value ([1]; Time 0.5 h)?
A: 93.2%

Q: And the “compound remaining … (%)” value ([1]; Time 1 h)?
A: 96.0%

Q: And the “compound remaining … (%)” value ([1]; Time 2 h)?
A: 91.7%

Q: And the “compound remaining … (%)” value ([1]; Time 4 h)?
A: 97.4%

Q: What about the “anti-NASH/NAFLD activities, in words” value ([2]; MCD diet mice) of the same substance?
A: significant anti-NASH/NAFLD activities

Q: What about the “effect on MCD diet-induced steatohepatitis (H&E staining), in words” value ([2]; MCD diet mice, 100 mg/kg oral) of the same substance?
A: prevented MCD diet-induced steatohepatitis

Q: What about the “effect on MCD diet-induced steatohepatitis (H-E staining), in words” value ([2]; MCD diet mice, 75, 100 and 150 mg/kg oral (FIG. 1, Table 3)) of the same substance?
A: prevented MCD diet-induced steatohepatitis

Q: And the Avg ([2]; 75 mg/kg oral)?
A: 6.2

Q: And the Avg ([2]; 100 mg/kg oral (Table 3 study))?
A: 4.2

Q: And the Avg ([2]; 150 mg/kg oral)?
A: 3.2

Q: And the Ballooning ([2]; MCD diet mice, 75 mg/kg oral)?
A: 2

Q: And the Inflammation ([2]; MCD diet mice, 75 mg/kg oral)?
A: 1

Q: And the Steastosis ([2]; MCD diet mice, 75 mg/kg oral once daily, 5 times a week)?
A: 3

Q: And the Fibrosis [2, 5]?
A: 1 and 0 (4×)

Q: What about the Fibrosis [2, 6] of the same substance?
A: 0

Q: What about the Inflammation [2, 6] of the same substance?
A: 0

Q: What about the Ballooning [2, 7] of the same substance?
A: 2 (3×) and 1 (2×)

Q: What about the Steastosis ([2]; MCD diet mice, 100 mg/kg oral once daily, 5 times a week (Table 3 study), hydrochloride, 100 mg/kg) of the same substance?
A: 3 (3×) and 2 (2×)

Q: What about the Fibrosis ([2]; MCD diet mice, 150 mg/kg oral) of the same substance?
A: 0

Q: What about the Inflammation ([2]; MCD diet mice, 150 mg/kg oral) of the same substance?
A: 0

Q: And the Steastosis ([2]; MCD diet mice, 150 mg/kg oral once daily, 5 times a week, hydrochloride, 150 mg/kg)?
A: 2 (3×) and 1 and 3

Q: What about the Ballooning [2, 8] of the same substance?
A: 1 (4×) and 2

Q: And the Sum ([2]; 75 mg/kg oral)?
A: 31

Q: And the Sum ([2]; 100 mg/kg oral (Table 3 study))?
A: 21

Q: And the Sum ([2]; 150 mg/kg oral)?
A: 16

Q: What about the Scores [2, 5] of the same substance?
A: 7 and 6 (4×)

Q: And the Scores [2, 7]?
A: 5 (3×) and 3 (2×)

Q: And the Scores [2, 8]?
A: 3 (3×) and 2 and 5
